Test results reported in PubChem BioAssay (NCI).
Several values for one entry are separate records, joined by “and”; a condition that tells them apart may be missing. Identical values can stand only once.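 Five compound concentrations were applied to cells in 96-well plates for 48 hours; endpoints were derived by simple linear interpolation of the resulting dose-response curve. GI50 = concentration required for 50% inhibition of growth. TGI: concentration producing complete growth inhibition.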

How the values were obtained:
Assay in all cases: NCI tumour cell line growth inhibition, 48 h
RXF 393 renal = test system: RXF 393 renal
HCT-116 colon = test system: HCT-116 colon
NCI-H522 lung = test system: NCI-H522 lung
DU-145 prostate = test system: DU-145 prostate
PC-3 prostate = test system: PC-3 prostate
A498 renal = test system: A498 renal
HT29 colon = test system: HT29 colon
MDA-MB-231 breast = test system: MDA-MB-231 breast
SF-295 CNS = test system: SF-295 CNS
KM12 colon = test system: KM12 colon

Row | SMILES | GI50 (RXF 393 renal) | TGI (RXF 393 renal) | GI50 (HCT-116 colon) | TGI (HCT-116 colon) | GI50 (NCI-H522 lung) | TGI (NCI-H522 lung) | GI50 (DU-145 prostate) [µM] | TGI (DU-145 prostate) [µM] | GI50 (PC-3 prostate) [µM] | TGI (PC-3 prostate) [µM] | GI50 (A498 renal) [µM] | TGI (A498 renal) | GI50 (HT29 colon) | TGI (HT29 colon) | GI50 (MDA-MB-231 breast) [µM] | TGI (MDA-MB-231 breast) [µM] | GI50 (SF-295 CNS) | TGI (SF-295 CNS) [µM] | GI50 (KM12 colon) | TGI (KM12 colon)
1 | CSc1ccc2c(c1)C(=O)c1c-2n(CCCBr)c(=O)c2cc([N+](=O)[O-])ccc12 | > 100 µM | > 100 µM | 2.22 µM | > 100 µM | 5.32 µM | 97.4 µM | 3.9 | > 100 | 25.8 | > 100 | 8.32 | 96.4 µM | 28.2 µM | > 100 µM | > 100 | > 100 | 1.04 µM | > 100 | 46.1 µM | > 100 µM
2 | COc1cc2c3c(n(CCCOC(=O)C(F)(F)F)c(=O)c2cc1OC)-c1cc2c(cc1C3=O)OCO2 | 0.593 µM | > 67.8 µM | < 0.0158 µM | – | 0.0167 µM | – | – | 1.71 | 0.0532 | > 100 | 0.375 | 20.6 µM | – | > 35.1 µM | 0.127 | > 49.9 | < 0.01 µM | 0.721 | 0.0296 µM | 14.6 µM
3 | COc1ccc(O)c(C(=O)c2ccc(C(=O)N[C@H]3CCCNC[C@@H]3NC(=O)c3ccncc3)cc2)c1F | 1.44 µM | 15 µM | 12.3 µM | > 25 µM | 7.69 µM | > 25 µM | 7.28 | 24.5 | > 21.6 | > 25 | 0.331 | 3.26 µM | 16.3 µM | > 25 µM | > 25 | > 25 | 1.9 µM | > 18.9 | 3.1 µM | > 16.5 µM
4 | Cc1cc(C)c(/C=C2\C(=O)Nc3ccc(NC(=O)CCCCCCC(=O)NO)cc32)[nH]1 | 1.17 µM | > 75.2 µM | 0.3 µM | 4.86 µM | 0.208 µM | 1.82 µM | 1.49 | > 100 | 0.684 | > 100 | 1.4 | 18.2 µM | 0.859 µM | > 100 µM | 1.37 | 60 | 1.44 µM | > 45.7 | 7.2 µM | > 100 µM
5 | OCc1ccn2c1[C@@H](O)CC2 | – | > 100 µM | – | > 100 µM | – | > 100 µM | – | > 100 | – | > 100 | – | > 100 µM | – | > 100 µM | – | > 100 | – | > 100 | – | > 100 µM
6 | CC[C@H]1CN2CCc3cc(OC)c(OC)cc3[C@@H]2C[C@@H]1C[C@H]1NCCc2c1[nH]c1ccc(O)cc21 | 0.0194 µM and 0.0351 µM | 0.0629 µM and 0.252 µM and 0.183 µM | 0.0196 µM and 0.0409 µM | 0.0475 µM and 0.207 µM and 0.195 µM | 0.00347 µM and 0.00354 µM | 0.0164 µM and 0.0108 µM | 0.0249 | 0.0584 | 0.0345 | 0.814 | 0.191 | 0.136 µM and 0.507 µM and 0.223 µM | 0.0271 µM and 0.0332 µM | 0.0862 µM and 0.341 µM and 0.11 µM | 0.0153 | 0.0483 | 0.0323 µM and 0.246 µM | – | 0.0507 µM and 0.0994 µM | 0.283 µM and 1.37 µM and 0.519 µM
7 | c1ccc2c(c1)c1c(c3ccccc32)CN2CCCC2C1 (stereo not given) | – | 9.02 µM | – | 14.7 µM | – | 9.9 µM | – | > 100 | – | 13.4 | – | 12.1 µM | – | > 34.8 µM | – | 32.3 | – | > 35.5 | – | 15.7 µM
8 | O=C1NC(=O)/C(=C\c2ccccc2)C2=C1CCCC2 | 6.52 µM | 59.8 µM | 3.38 µM | 11.1 µM | 13.7 µM | 32.1 µM | 10.8 | 22.9 | 6.36 | 35.5 | 12.9 | 26.1 µM | 14.9 µM | 44.1 µM | 13.2 | 26.4 | 3.98 µM | 17.6 | 9.21 µM | 22 µM
9 | O=S(=O)(Nc1ccc(F)cc1F)c1ccc(-c2cnc(C3CC3)o2)cc1 | 0.595 µM | 7.05 µM | 0.421 µM | > 64 µM | 0.347 µM | 16 µM | 2.09 | > 100 | 0.897 | > 50.1 | 0.223 | 2.08 µM | 0.381 µM | 15.2 µM | 1.37 | 21.7 | 0.359 µM | 5.53 | 0.485 µM | 28.5 µM
10 | Cc1cc(C)c(NC(=O)c2sc3nc4c(cc3c2N)CN(Cc2ccccc2)CC4)c(C)c1 | 2.45 µM | 18.5 µM | 2.89 µM | 16 µM | 1.6 µM | 6.82 µM | 2.62 | 7.65 | 3.13 | > 100 | 1.31 | 7.71 µM | 2.88 µM | 13.2 µM | 5.75 | 58.9 | 1.89 µM | 64.7 | 3.26 µM | 43.1 µM
11 | OCCCNc1nccc(-c2c(-c3ccc(F)cc3)nn3cc(C(F)(F)F)ccc23)n1 | 5.86 µM | 19.1 µM | 11.7 µM | > 25 µM | 16.7 µM | > 25 µM | 12.9 | > 25 | 15.1 | > 25 | 12.8 | > 25 µM | 7.73 µM | > 25 µM | 24.6 | > 25 | 10.3 µM | > 25 | 11.1 µM | > 25 µM
12 | CCOC(=O)c1c(NC(=O)c2cccc(C(F)(F)F)c2)sc2c(CN(C)C)c(O)ccc12 | 1.81 µM | 3.76 µM | 3.14 µM | 10.3 µM | 5.03 µM | 28 µM | 5.82 | 17.9 | 5.45 | 18.1 | 12.4 | 34.5 µM | 2.21 µM | 5.05 µM | 4.23 | 15.2 | 2.83 µM | 9.2 | 4.92 µM | 17.9 µM
13 | C=C1C(=O)O[C@H]2[C@H]1CC/C(COC(=O)/C=C\C(=O)NCc1ccc(Cn3c(=O)sn(CCCC)c3=O)cc1)=C\CC[C@@]1(C)O[C@@H]21 | 0.547 µM | 1.79 µM | 0.176 µM | 0.491 µM | 0.315 µM | 1.27 µM | 0.854 | 2.16 | 0.868 | 2.34 | 1.18 | 2.44 µM | 0.472 µM | 2.07 µM | 0.992 | 2.34 | 1.73 µM | 3.24 | 1.67 µM | 3.8 µM
